Measured values reported in PMC10449633 (Nature Chemical Biology, 2023).
Values joined by “and” are separate entries in the source; they are usually repeats but may differ in a detail not shown here. Identical values can stand only once. Like-named read-outs stand apart in the source and are kept apart here. Numbered stars: 1 amine (or outer) side, 2 acyl side, 3 side chain; on linkers, the order of the positions; unused ones are H or OH. Square brackets hold non-standard residues; d marks the D form. Peptide text beside a SMILES is read from it. ξ: configuration not given here. X1 = CN(C(Cc1cn(Cc2ccc(Br)cc2)c2ccccc12)C(=O)[*:2])[*:1]; ξAla(CF3) = NC(CC(F)(F)F)C(=O)O; X2 = N#CCCC(O[*:1])C(=O)[*:2]; NMeL = CN[CH](CC(C)C)C(=O)O; NMeA = CN[CH](C)C(=O)O

How the values were obtained:
Sec61α R66I = Sec61α R66I (Canis lupus familiaris, UniProt P38377, R66I); assay: Luciferase reporter assay in HEK293 cells expressing Sec61α R66I
Chain of Sec61α R66I (P38377 whole entry R66I): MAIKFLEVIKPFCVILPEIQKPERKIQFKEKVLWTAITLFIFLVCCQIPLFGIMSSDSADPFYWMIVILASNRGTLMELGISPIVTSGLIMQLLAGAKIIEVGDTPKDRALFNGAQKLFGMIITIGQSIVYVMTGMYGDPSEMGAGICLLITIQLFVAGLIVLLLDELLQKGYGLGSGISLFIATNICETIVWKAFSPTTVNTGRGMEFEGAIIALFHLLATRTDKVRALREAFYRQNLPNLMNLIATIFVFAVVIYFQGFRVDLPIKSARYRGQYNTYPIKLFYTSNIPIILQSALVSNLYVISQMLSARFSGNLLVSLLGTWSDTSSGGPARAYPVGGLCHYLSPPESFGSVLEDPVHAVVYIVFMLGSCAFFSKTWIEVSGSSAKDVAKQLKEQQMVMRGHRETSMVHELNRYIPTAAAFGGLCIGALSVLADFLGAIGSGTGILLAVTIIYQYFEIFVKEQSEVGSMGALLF
Chain of Sec61α R66I (P60059 whole entry, further chain): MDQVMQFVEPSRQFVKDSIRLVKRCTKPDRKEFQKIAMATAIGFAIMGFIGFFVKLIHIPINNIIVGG
Chain of Sec61α R66I (P60468 whole entry, further chain): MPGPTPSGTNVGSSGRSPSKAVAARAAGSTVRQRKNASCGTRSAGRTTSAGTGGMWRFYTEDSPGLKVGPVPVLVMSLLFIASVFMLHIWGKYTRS
Procedure: (§1) Data are mean values ± s.d. from n = 2 independent experiments.
(§2) HEK293T cells (0.3 × 10^6) were seeded per well of a six-well plate and incubated at 37 °C in 5% CO2 for 24 h to adhere. Each of the two wells was transfected with 1 µg of plasmid encoding a luciferase with the signal peptide of either VCAM1 or pPL using PEI in a 5:1 ratio, after which cells were returned to the incubator for a further 24 h. Transfected cells were then resuspended following trypsinization, cell count estimated using a TC20 Automated Cell Counter (BioRad) and diluted to seed a 96-well flat-bottom plate with 1.6 × 10^4 cells per well. […] Cells were then incubated for a further 24 h, after which the luciferase-containing media were transferred to a clean 96-well plate and stored at −20 °C. Luciferase activity of the media was estimated using a Gaussia-GLOW Juice Luciferase Assay kit from PJK Biotech GmbH as per the manufacturer’s instructions. Luminescence was measured using an EnSpire Multimode plate reader (PerkinElmer). Background luminescence from media placed in a well with neither cells nor drug was subtracted from all values, and measurements were calculated as a percentage of luminescence intensity of a well expressing the appropriate luciferase construct in the absence of any drug. Curves were fitted, and IC50 values were calculated using GraphPad Prism 8.
(§3) WT canine Sec61 was cloned into pcDNA5/FRT/TO (Thermo Fisher Scientific), and point mutations were generated using PCR. All mutants were sequence verified. HEK293 Flp-In T-REx cells (Thermo Fisher Scientific, R78007) were cultured in Dulbecco’s modified Eagle’s medium (Gibco) supplemented with 10% FBS (Gibco) at 37 °C in a humidified 5% CO2 atmosphere. Approximately 0.3 µg of pOG44 and 1 µg of targeting construct plasmids were mixed in 250 µl of OptiMEM (Thermo Fisher Scientific, 51985-026). A total of 3 µl (3 µg) Lipofectamine3000 transfection reagent was then added to the DNA mix and incubated at room temperature for 20 min, and the whole mixture was added to the cells. Cells were exposed to 100 µg ml^−^1 hygromycin B (Invitrogen) and 10 µg ml^−^1 blasticidin for 3–4 weeks until the appearance of resistant colonies. Colonies were expanded into T75 flasks and induced with doxycycline (Sigma-Aldrich, D9891) at a concentration of 1–5 µg ml^−^1 for 48 h. Cells were collected, and total RNA was extracted followed by cDNA amplification and sequencing of Sec61 with gene-specific PCR primers to confirm. Cells were then used for the luciferase reporter assays as above.
(§4) Data are mean values ± SD and are representative of n = 2 independent experiments.

[1] = system: human peripheral blood mononuclear cells (PBMCs); assay: Cytokine secretion assay, stimulated human PBMCs (MSD U-PLEX); type: cell-based; conditions: for IC50: 24 h, tested 0.025–25,000 nM
[2] = system: T-cell acute lymphoblastic leukemia cells; conditions: in vitro; cited from earlier work
Sec61α V303A = Sec61α V303A (Canis lupus familiaris, UniProt P38377, V303A); assay: Luciferase reporter assay in HEK293 cells expressing Sec61α V303A; set-up: remaining activity: dose or concentration left out as unconfirmed; conditions: HEK293, 24 h, read-out: luciferase reporter activity (% of no-drug control), V303A
Chain of Sec61α V303A (P60059 whole entry): as the sequence (P60059 whole entry, further chain) above
Chain of Sec61α V303A (P38377 whole entry V303A): as the sequence (P38377 whole entry R66I) above, with I66R, V303A counted along it
Chain of Sec61α V303A (P60468 whole entry, further chain): as the sequence (P60468 whole entry, further chain) above
Procedure: as §1, §2, §3, §4

mouse splenocytes = conditions: 24 h treatment
Sec61 = target: T1, Sec61 (Homo sapiens, UniProt P61619); assay: cell-based; type: cell-based; conditions: for remaining activity at 0.000660151 µM: Drug nM (log10) 0.660151; for remaining activity at 0.00050805 µM: Drug nM (log10) -0.29409
T1 construct: endogenous in cells
T1 sequence (P61619 whole entry): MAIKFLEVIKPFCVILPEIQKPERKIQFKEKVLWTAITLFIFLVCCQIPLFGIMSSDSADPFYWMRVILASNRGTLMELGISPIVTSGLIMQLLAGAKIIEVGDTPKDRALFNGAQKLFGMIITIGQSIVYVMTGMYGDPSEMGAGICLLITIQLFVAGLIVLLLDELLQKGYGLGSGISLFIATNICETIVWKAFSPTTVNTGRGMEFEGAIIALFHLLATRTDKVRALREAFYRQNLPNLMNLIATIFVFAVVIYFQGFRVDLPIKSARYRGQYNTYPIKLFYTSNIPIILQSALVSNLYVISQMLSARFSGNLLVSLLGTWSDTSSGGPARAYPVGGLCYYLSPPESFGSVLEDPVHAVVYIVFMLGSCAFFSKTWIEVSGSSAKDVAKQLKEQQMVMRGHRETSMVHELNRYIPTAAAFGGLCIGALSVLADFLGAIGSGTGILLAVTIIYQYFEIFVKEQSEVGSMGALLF
T1 sequence (P60059 whole entry, further chain): as the sequence (P60059 whole entry, further chain) above
T1 sequence (P60468 whole entry, further chain): as the sequence (P60468 whole entry, further chain) above

Sec61α Q127A = Sec61α Q127A (Canis lupus familiaris, UniProt P38377, Q127A); assay: Luciferase reporter assay in HEK293 cells expressing Sec61α Q127A; set-up: remaining activity: dose or concentration left out as unconfirmed; conditions: HEK293, 24 h, read-out: luciferase reporter activity (% of no-drug control), Q127A
Chain of Sec61α Q127A (P60059 whole entry): as the sequence (P60059 whole entry, further chain) above
Chain of Sec61α Q127A (P60468 whole entry, further chain): as the sequence (P60468 whole entry, further chain) above
Chain of Sec61α Q127A (P38377 whole entry Q127A): as the sequence (P38377 whole entry R66I) above, with I66R, Q127A counted along it
Procedure: as §1, §2, §3, §4

[3] = HEK-293T, 24 h, VCAM signal peptide, read-out: secreted luciferase activity (% of no-drug control)
[4] = HEK-293T, 24 h, pPL signal peptide, read-out: secreted luciferase activity (% of no-drug control)

In the case of `CC(C)CC1NC(=O)C(Cc2cn(Cc3ccc(Br)cc3)c3ccccc23)N(C)C(=O)C(CC(F)(F)F)NC(=O)C(CC(C)C)N(C)C(=O)C(CC(F)(F)F)NC(=O)C(CCC#N)OC(=O)C(C)N(C)C1=O` (stereo not shown) [KZR-8445] (cyclo([X1]L[NMeA][X2][ξAla(CF3)][NMeL][ξAla(CF3)]); configuration not given here), the remaining activity at 0.004 µM (Sec61α R66I; HEK293, 24 h, read-out: luciferase reporter activity (% of no-drug control), R66I, Drug nM (log10) 4) is reported as 39%, the remaining activity at 0.00050805 µM (Sec61α R66I; HEK293, 24 h, read-out: luciferase reporter activity (% of no-drug control), R66I, Drug nM (log10) -0.29409) is reported as 90% and the “effect of R66I mutation on sensitivity in secreted GLuc assay” value (Sec61α R66I; HEK293 cells) is reported as “conferred resistance”. It also gave an IC50 ([1]; Homo sapiens, PBMC, LPS-stimulation, read-out: IC50, IL-1β secretion) of over 25000 nM, an IC50 ([1]; Homo sapiens, PBMC, LPS-stimulation, read-out: IC50, IL-23 secretion) of 167 nM and an IC50 ([1]; Homo sapiens, PBMC, anti-CD3/CD28-stimulation, read-out: IC50, GM-CSF secretion) of 189 nM. For the same compound, the IC50 ([1]; Homo sapiens, PBMC, anti-CD3/CD28-stimulation, read-out: IC50, IL-2 secretion) was 42.2 nM, the IC50 ([1]; Homo sapiens, PBMC, anti-CD3/CD28-stimulation, read-out: IC50, TNFα secretion) was 42.6 nM and the IC50 ([1]; LPS-stimulation, read-out: IC50, IL-23 secretion) was 233 nM and 188 nM and 190 nM. The “IC50s, secretion of six of seven tested cytokines” value ([1]; activated human PBMCs and mouse splenocytes) was “submicromolar”, the IC50 ([1]; anti-CD3/CD28-stimulation, read-out: IC50, GM-CSF secretion) was 185 nM and 222 nM and 212 nM and the IC50 ([1]; anti-CD3/CD28-stimulation, read-out: IC50, IL-2 secretion) was 38.7 nM and 39 nM and 26.6 nM. For the same compound, the IC50 ([1]; anti-CD3/CD28-stimulation, read-out: IC50, TNFα secretion) was 31.8 nM and 37.5 nM and 26.2 nM, the “secretion of IL-1β” value ([1]; not Sec61-dependent) was “unaffected” and the “dexamethasone resistance in T-ALL cells” value [2] was “overcome dexamethasone resistance”. The remaining activity at 0.00018303 µM (Sec61α V303A; Drug nM (log10) 0.18303) was 95.1%, the remaining activity at 0.000660151 µM (Sec61α V303A; Drug nM (log10) 0.660151) was 82.2% and the remaining activity at 0.00113727 µM (Sec61α V303A; Drug nM (log10) 1.13727) was 64.5%. The remaining activity (Sec61α V303A; Drug nM (log10) 1.61439) was 42%, the remaining activity (Sec61α V303A; Drug nM (log10) 2.09151) was 21.1% and the remaining activity (Sec61α V303A; Drug nM (log10) 2.56864) was 8.79%. The remaining activity (Sec61α V303A; Drug nM (log10) 3.04576) was 3.93%, the remaining activity (Sec61α V303A; Drug nM (log10) 3.52288) was 2.95% and the remaining activity at 0.004 µM (Sec61α V303A; Drug nM (log10) 4) was 3.21%. The remaining activity at 0.00050805 µM (Sec61α V303A; Drug nM (log10) -0.29409) was 96.2%, the “cell viability (CTG assay)” value (mouse splenocytes; 0.025 nM) was 106.047 and 100.001 and the “cell viability (CTG assay)” value (mouse splenocytes; 0.25 nM) was 110.01 and 102.05. The “cell viability (CTG assay)” value (mouse splenocytes; 2.5 nM) was 105.776 and 105.957, the “cell viability (CTG assay)” value (mouse splenocytes; 25 nM) was 105.176 and 97.9523 and the “cell viability (CTG assay)” value (mouse splenocytes; 250 nM) was 107.467 and 93.3938. For the same compound, the “cell viability (CTG assay)” value (mouse splenocytes; 2500 nM) was 99.7089 and 85.9729, the “cell viability (CTG assay)” value (mouse splenocytes; 25000 nM) was 95.1208 and 88.5789 and the “potency against VCAM-GLuc relative to pPL-GLuc” value (Sec61; HEK293T, 24 h) was 20 fold. It also gave a remaining activity at 0.000660151 µM (Sec61; [3]) of 84%, a remaining activity at 0.00050805 µM (Sec61; [3]) of 92.6% and a remaining activity at 0.000660151 µM (Sec61; [4]) of 93.6%. It also gave a remaining activity at 0.004 µM (Sec61; HEK-293T, 24 h, pPL signal peptide, Drug nM (log10) 4, read-out: secreted luciferase activity (% of no-drug control)) of 14%, a remaining activity at 0.00050805 µM (Sec61; [4]) of 97.9% and an IC50 (Sec61; read-out: IC50, prolactin signal peptide in SP-GLuc secretion assay) of about 1000 nM. It also gave a remaining activity at 0.00018303 µM (Sec61α Q127A; Drug nM (log10) 0.18303) of 76.3%, a remaining activity at 0.000660151 µM (Sec61α Q127A; Drug nM (log10) 0.660151) of 76.5% and a remaining activity at 0.00113727 µM (Sec61α Q127A; Drug nM (log10) 1.13727) of 51.2%. The remaining activity (Sec61α Q127A; Drug nM (log10) 1.61439) was 32.3%, the remaining activity (Sec61α Q127A; Drug nM (log10) 2.09151) was 14.7% and the remaining activity (Sec61α Q127A; Drug nM (log10) 2.56864) was 6.52%. It also gave a remaining activity (Sec61α Q127A; Drug nM (log10) 3.04576) of 3.21%, a remaining activity (Sec61α Q127A; Drug nM (log10) 3.52288) of 2.56% and a remaining activity at 0.004 µM (Sec61α Q127A; Drug nM (log10) 4) of 2.87%. The remaining activity at 0.000508 µM (Sec61α Q127A; Drug nM (log10) -0.29409) was 88.9%.
